Data on 5 compounds can be found in patent EP4667483A1, “HUMAN TRANSFERRIN RECEPTOR-BINDING PEPTIDE” (JCR Pharmaceuticals Co., Ltd., priority 2023, dated 2024).

Numbered stars: 1 amine (or outer) side, 2 acyl side, 3 side chain; on linkers, the order of the positions; unused ones are H or OH. Bridge positions count the residues as written; N and C are the ends. Square brackets hold non-standard residues; d marks the D form. Side chains are listed from the residue outwards. Peptide text beside a SMILES is read from it. * marks the point of attachment. Trp(1-CH2COOH) = N[C@@H](Cc1cn(CC(=O)O)c2ccccc12)C(=O)O; CH2CON(CH2CH2)2NCH2COOH = O=C(O)CN1CCN(C(=O)C*)CC1; Nle(6-morpholino) = N[C@@H](CCCCN1CCOCC1)C(=O)O; Trp(7-aza) = N[C@@H](Cc1c[nH]c2ncccc12)C(=O)O; NH(CH2CH2O)8Me = COCCOCCOCCOCCOCCOCCOCCOCCN*; NMePhe(3-Cl) = CN[C@@H](Cc1cccc(Cl)c1)C(=O)O; Piperazinyl(4-CH2COOH) = O=C(O)CN1CCN(*)CC1; 3Pal(6-NH2) = Nc1ccc(C[C@H](N)C(=O)O)cn1; NMeY = CN[C@@H](Cc1ccc(O)cc1)C(=O)O; 4Pal = N[C@@H](Cc1ccncc1)C(=O)O; PEG4 = NCCOCCOCCOCCOCCC(=O)O; CO = O=C([*:1])[*:2]

The experiment concerns the target human transferrin receptor (hTfR) (Homo sapiens, UniProt P02786). Nature of the experiment: SPR measurement under pH 7.4 conditions (Biacore T200, CM3 chip, hTfR captured by His Tag antibody). The experiment is classed as binding. The conditions noted are these: SPR, pH 7.4; Table 2-1-2; read-out: hTfR SPR pH7.4 KD(n M). As to the method: Molecular interactions between the synthesized peptides and the transferrin receptor (hTfR) were evaluated by surface plasmon resonance (SPR) using the following method. The specific assay procedure is described below.
An CM3 sensor chip (Cytiva) was inserted into BiacoreT200 (Cytiva), then a priming operation was performed three times by using a running buffer: HBS-P+, pH7.4 (Cytiva), and an equilibrium state was created at a flow rate of […]. Ligand immobilization was performed at a flow rate of 10 µL/min. After mixing 50 µL each of 60 mM EDC solution (Cytiva) and 650 mM NHS solution (Cytiva), the mixture was reacted at a flow rate of 10 µL/min for 420 seconds. 150 µL of […] THE His Tag Antibody, mAb, Mouse (GenScript) was prepared by diluting with 10 mM acetic acid solution (pH 5.0), and reacted at a flow rate of 10 µL/ min for 420 seconds. Then, THE His Tag Antibody, mAb, Mouse (GenScript) was immobilized as a capture molecule on the CM3 sensor chip. After immobilization, capping was performed by reacting with 1.0 M ethanolamine solution (Cytiva) at a flow rate of 10 µL/min for 420 seconds. 300 nM hTfR was captured at a flow rate of 10 µL/min, a peptide solution prepared at 10 mM in DMSO was diluted with running buffer to achieve a final concentration of 10 µM, and peptide solutions at 250 nM, 125 nM, 62.5 nM, 25 nM, and 12.5 nM were prepared. . The peptide samples were reacted at a flow late of 30 µL/min for 120 seconds, followed by dissociation for 600 seconds. The kinetics of the peptide against hTfR was obtained by SPR measurement for the above samples.
The kinetic evaluation model was single-cycle kinetics, and curve fitting was performed using Biacore T200 Evaluation Software Version 3.0 (Cytiva). The binding of the peptide to hTfR was evaluated by performing curve fitting on the obtained sensorgram by the least squares method and obtaining the kon value, the koff value, and the KD value.
A general note: SPR reads the build-up and loss of mass on a sensor chip optically.

Sequence of human transferrin receptor (hTfR) (P02786 whole entry): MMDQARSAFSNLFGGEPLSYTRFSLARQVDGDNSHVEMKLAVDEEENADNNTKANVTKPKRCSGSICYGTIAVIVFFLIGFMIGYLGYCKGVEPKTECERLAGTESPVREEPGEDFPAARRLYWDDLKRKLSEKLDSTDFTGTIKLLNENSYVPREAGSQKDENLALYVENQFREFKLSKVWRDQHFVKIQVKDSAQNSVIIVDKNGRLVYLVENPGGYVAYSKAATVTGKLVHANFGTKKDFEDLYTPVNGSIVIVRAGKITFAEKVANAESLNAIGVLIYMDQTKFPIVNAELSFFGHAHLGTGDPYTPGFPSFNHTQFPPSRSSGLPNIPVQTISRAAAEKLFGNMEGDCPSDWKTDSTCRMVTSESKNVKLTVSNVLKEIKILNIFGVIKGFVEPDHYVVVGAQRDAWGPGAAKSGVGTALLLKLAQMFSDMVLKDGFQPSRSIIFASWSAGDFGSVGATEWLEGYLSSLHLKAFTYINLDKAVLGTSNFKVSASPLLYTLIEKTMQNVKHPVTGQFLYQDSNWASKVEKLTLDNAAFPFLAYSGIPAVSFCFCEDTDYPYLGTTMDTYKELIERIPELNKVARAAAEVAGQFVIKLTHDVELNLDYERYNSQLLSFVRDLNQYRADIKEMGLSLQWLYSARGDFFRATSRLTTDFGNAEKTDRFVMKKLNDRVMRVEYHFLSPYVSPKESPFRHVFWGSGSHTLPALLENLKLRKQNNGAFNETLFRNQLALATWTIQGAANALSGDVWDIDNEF

The term Kd denotes the constant that tells how readily two partners part at equilibrium. `CC[C@H](C)[C@@H]1NC(=O)[C@H](Cc2ccc(OCC(=O)N3CCN(CC(=O)O)CC3)cc2)NC(=O)[C@H](Cc2ccc(N)nc2)NC(=O)[C@H](CC(N)=O)NC(=O)[C@H](Cc2c[nH]c3ncccc23)NC(=O)[C@H](C(C)C)NC(=O)[C@H](Cc2cccc(Cl)c2)N(C)C(=O)[C@H](C(C)C)NC(=O)[C@H](C)NC(=O)CSC[C@@H](C(=O)NCCOCCOCCOCCOCCC(N)=O)NC(=O)[C@H](Cc2ccc(O)cc2)N(C)C(=O)[C@H](Cc2ccncc2)NC(=O)[C@H](CCCCN2CCOCC2)NC(=O)[C@H](CCC(=O)NCCOCCOCCOCCOCCOCCOCCOCCOC)NC(=O)[C@H]([C@@H](C)CC)NC1=O` [compound 154] ({CH2CO}-AV[NMePhe(3-Cl)]V[Trp(7-aza)]N[3Pal(6-NH2)]Y(CH2CON(CH2CH2)2NCH2COOH)IIE(NH(CH2CH2O)8Me)[Nle(6-morpholino)][4Pal][NMeY]C[PEG4]-NH2; thioether N-15): the Kd came to 0.0326 µM.
Consider `CC[C@H](C)[C@@H]1NC(=O)[C@H](Cc2ccc(OCC(=O)N3CCN(CC(=O)O)CC3)cc2)NC(=O)[C@H](Cc2ccc(N)nc2)NC(=O)[C@H](CC(N)=O)NC(=O)[C@H](Cc2cn(CC(=O)O)c3ccccc23)NC(=O)[C@H](C(C)C)NC(=O)[C@H](Cc2cccc(Cl)c2)N(C)C(=O)[C@H](C(C)C)NC(=O)[C@H](C)NC(=O)CSC[C@@H](C(=O)NCCOCCOCCOCCOCCC(N)=O)NC(=O)[C@H](Cc2ccc(O)cc2)N(C)C(=O)[C@H](Cc2ccncc2)NC(=O)[C@H](CCCCN2CCOCC2)NC(=O)[C@H](CCC(=O)NCCOCCOCCOCCOCCOCCOCCOCCOC)NC(=O)[C@H]([C@@H](C)CC)NC1=O` [compound 155] ({CH2CO}-AV[NMePhe(3-Cl)]V[Trp(1-CH2COOH)]N[3Pal(6-NH2)]Y(CH2CON(CH2CH2)2NCH2COOH)IIE(NH(CH2CH2O)8Me)[Nle(6-morpholino)][4Pal][NMeY]C[PEG4]-NH2; thioether N-15), for which the Kd was found to be 0.0284 µM.
For the compound `CC[C@H](C)[C@@H]1NC(=O)[C@H](Cc2ccc(OCC(=O)N3CCN(CC(=O)O)CC3)cc2)NC(=O)[C@H](Cc2ccc(N)nc2)NC(=O)[C@H](CC(N)=O)NC(=O)[C@H](Cc2c[nH]c3ncccc23)NC(=O)[C@H](C(C)C)NC(=O)[C@H](Cc2cccc(Cl)c2)N(C)C(=O)[C@H](C(C)C)NC(=O)[C@H](C)NC(=O)CSC[C@@H](C(=O)NCCOCCOCCOCCOCCC(N)=O)NC(=O)[C@H](Cc2ccc(O)cc2)N(C)C(=O)[C@H](Cc2ccncc2)NC(=O)[C@H](CCCNC(=N)N)NC(=O)[C@H](CCCCNC(=O)N2CCN(CC(=O)O)CC2)NC(=O)[C@H]([C@@H](C)CC)NC1=O` [compound 156] ({CH2CO}-AV[NMePhe(3-Cl)]V[Trp(7-aza)]N[3Pal(6-NH2)]Y(CH2CON(CH2CH2)2NCH2COOH)IIK([CO-Piperazinyl(4-CH2COOH)])R[4Pal][NMeY]C[PEG4]-NH2; thioether N-15), the Kd was 0.016 µM.
`CC[C@H](C)[C@@H]1NC(=O)[C@H](Cc2ccc(OCC(=O)N3CCN(CC(=O)O)CC3)cc2)NC(=O)[C@H](Cc2ccc(N)nc2)NC(=O)[C@H](CC(N)=O)NC(=O)[C@H](Cc2c[nH]c3ncccc23)NC(=O)[C@H](C(C)C)NC(=O)[C@H](Cc2cccc(Cl)c2)N(C)C(=O)[C@H](C(C)C)NC(=O)[C@H](C)NC(=O)CSC[C@@H](C(=O)NCCOCCOCCOCCOCCC(N)=O)NC(=O)[C@H](Cc2ccc(O)cc2)N(C)C(=O)[C@H](Cc2ccncc2)NC(=O)[C@H](CCCCN2CCOCC2)NC(=O)[C@H](CCCCNC(=O)N2CCN(CC(=O)O)CC2)NC(=O)[C@H]([C@@H](C)CC)NC1=O` [compound 157] ({CH2CO}-AV[NMePhe(3-Cl)]V[Trp(7-aza)]N[3Pal(6-NH2)]Y(CH2CON(CH2CH2)2NCH2COOH)IIK([CO-Piperazinyl(4-CH2COOH)])[Nle(6-morpholino)][4Pal][NMeY]C[PEG4]-NH2; thioether N-15): the Kd stood at 0.015 µM.
The result for `CC[C@H](C)[C@@H]1NC(=O)[C@H](Cc2ccc(OCC(=O)N3CCN(CC(=O)O)CC3)cc2)NC(=O)[C@H](Cc2ccc(N)nc2)NC(=O)[C@H](CC(N)=O)NC(=O)[C@H](Cc2cn(CC(=O)O)c3ccccc23)NC(=O)[C@H](C(C)C)NC(=O)[C@H](Cc2cccc(Cl)c2)N(C)C(=O)[C@H](C(C)C)NC(=O)[C@H](C)NC(=O)CSC[C@@H](C(=O)NCCOCCOCCOCCOCCC(N)=O)NC(=O)[C@H](Cc2ccc(O)cc2)N(C)C(=O)[C@H](Cc2ccncc2)NC(=O)[C@H](CCCNC(=N)N)NC(=O)[C@H](CCCCNC(=O)N2CCN(CC(=O)O)CC2)NC(=O)[C@H]([C@@H](C)CC)NC1=O` [compound 158] ({CH2CO}-AV[NMePhe(3-Cl)]V[Trp(1-CH2COOH)]N[3Pal(6-NH2)]Y(CH2CON(CH2CH2)2NCH2COOH)IIK([CO-Piperazinyl(4-CH2COOH)])R[4Pal][NMeY]C[PEG4]-NH2; thioether N-15) reads 0.0202 µM.
